# Test results: the supplement of paper PMC5844555
# Legend:
# Test in all cases: 3' UTR reporter interaction score (median-centred robust z-score of log2 firefly/Renilla activity); higher = less repression of the 3' UTR reporter
# Conditions in all cases: HEK293T; 48 h
# MYC = system: MYC
# Summary of the method: (§1)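 For the interaction score, the firefly/Renilla ratio was log-transformed, expressed as a robust z-score per plate using median and median absolute deviation, and median-centred per miRNA; a more negative score indicates interaction. These scores come from at least two independent screens, averaged. Each screen used HEK293T cells at 10,000/well in 96-well plates, co-transfected with DharmaFECT Duo carrying 100 ng luc2P 3' UTR reporter, 20 ng pRL-TK and 2.5 pmol miRNA mimic, with luciferase read at 48 h.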
# HRAS = system: HRAS
# Summary of the method: as §1
# TP53 = system: TP53
# Summary of the method: as §1
# MYB = system: MYB
# Summary of the method: as §1
# MYCN = system: MYCN
# Summary of the method: as §1
# PHOX2B = system: PHOX2B
# Summary of the method: as §1
# NOTCH1 = system: NOTCH1
# Summary of the method: as §1
# ZEB2 = system: ZEB2
# Summary of the method: as §1
# FBXW7 = system: FBXW7
# Summary of the method: as §1
# EZH2 = system: EZH2
# Summary of the method: as §1
# RB1 = system: RB1
# Summary of the method: as §1
# PHF6 = system: PHF6
# Summary of the method: as §1
# MYT1L = system: MYT1L
# Summary of the method: as §1
# BRCA2 = system: BRCA2
# Summary of the method: as §1
Sequence,3' UTR reporter interaction score (MYC),3' UTR reporter interaction score (HRAS),3' UTR reporter interaction score (TP53),3' UTR reporter interaction score (MYB),3' UTR reporter interaction score (MYCN),3' UTR reporter interaction score (PHOX2B),3' UTR reporter interaction score (NOTCH1),3' UTR reporter interaction score (ZEB2),3' UTR reporter interaction score (FBXW7),3' UTR reporter interaction score (EZH2),3' UTR reporter interaction score (RB1),3' UTR reporter interaction score (PHF6),3' UTR reporter interaction score (MYT1L),3' UTR reporter interaction score (BRCA2)
AGUGGGGAACCCUUCCAUGAGGA,-0.465,0.144,-3.21,0.186,0.0621,-0.69,-0.0192,1.02,0.423,-0.974,0.472,0.14,-1.79,0.0202
AGUGGUUUUACCCUAUGGUAG,0.603,-0.669,-3.34,2.26,0.551,1.56,-0.395,-0.644,-0.0104,0.908,1.79,1.32,1.52,-2.62
AGUGUGGCUUUCUUAGAGC,-0.501,0.377,-0.0434,0.805,0.47,1.11,-0.152,0.748,1.11,-0.421,-0.335,-0.715,-0.23,-3.13
AGUUAAUGAAUCCUGGAAAGU,0.0217,-0.441,-0.194,0.47,0.0474,-0.662,-0.406,0.251,0.0665,-0.175,-0.487,-0.54,-0.25,-0.407
AUAAGACGAGCAAAAAGCUUGU,-0.771,0.557,0.501,-1.19,-0.0307,-0.501,-0.743,-2.58,0.133,1.23,-1.39,-0.375,0.212,2.27
AUAAUACAUGGUUAACCUCUUU,0.024,-0.143,-0.592,1.01,1.04,-0.62,0.871,-2.7,-0.808,0,-0.631,-0.737,0.598,-0.764
AUCAACAGACAUUAAUUGGGCGC,-1.29,1.56,-1.55,0.0314,-0.34,-0.111,-1.2,1.91,1.67,1.19,1.49,-1.06,-0.0651,1.26
AUCACACAAAGGCAACUUUUGU,0.0727,-0.777,-0.723,0.989,0.776,0.549,0.929,-0.747,-0.0452,-1.06,0.566,-0.33,0.734,-0.664
AUCACAUUGCCAGGGAUUUCC,-0.00223,-0.452,-1.29,-0.3,0.592,-0.216,-0.492,2.06,0.0652,0.281,0.826,0.394,0.197,-1.67
AUCAGCAAACAUUUAUUGUGUG,-0.19,-1.06,0.16,1.62,-0.181,1.35,0.157,1.25,-0.701,-1.04,1.07,1.01,-0.934,0.0901
AUCAUAGAGGAAAAUCCACGU,-0.578,-1.11,0.405,-0.185,0.335,0.628,0.241,-0.144,0.0331,0.733,-0.168,0.424,0.0345,0.121
AUCAUAGAGGAAAAUCCAUGUU,-0.229,-0.664,0.636,0.366,0.0452,0.462,1.28,-1.1,-0.575,0.791,0.00936,-0.0407,-0.0506,-0.0049
AUCAUGAUGGGCUCCUCGGUGU,-1.04,0.527,0.202,0.47,-1.14,-0.574,-2.44,0.672,-2.53,-0.332,0.226,0.0291,1.53,-0.103
AUCCCUUGCAGGGGCUGUUGGGU,0.108,-0.0656,-0.855,0.681,0.104,-1.62,0.359,1.78,-1.6,0.197,-0.201,-0.0289,0.613,-0.445
AUCCUUGCUAUCUGGGUGCUA,0.118,-3.26,0.763,0.799,1.2,-0.723,0.113,-0.105,0.895,-0.755,-2.46,-1.61,0.363,-0.448
AUCGCUGCGGUUGCGAGCGCUGU,0.0173,-1.73,-0.536,1.13,0.0647,2.38,-0.324,0.885,0.301,-1.15,-0.265,2.14,1.61,-2.3
AUCGGGAAUGUCGUGUCCGCC,-1.57,0.0629,0.313,-0.74,-0.166,0.773,-0.49,0.211,0.361,-0.604,-0.355,1.55,-0.0689,0.225
AUCGUGCAUCCCUUUAGAGUGUU,-0.211,-0.945,-0.928,0.132,0.792,-0.0114,-0.525,-2.08,0.0524,0.461,0.943,1.97,0.0982,0.348
AUCGUGCAUCCUUUUAGAGUGU,-0.764,-1.03,-0.802,0.368,1.14,0.0627,-0.741,-2.58,-0.0607,0.0977,0.712,2.24,-0.261,-0.461

Sequence,3' UTR reporter interaction score (MYC),3' UTR reporter interaction score (HRAS),3' UTR reporter interaction score (TP53),3' UTR reporter interaction score (MYB),3' UTR reporter interaction score (MYCN),3' UTR reporter interaction score (PHOX2B),3' UTR reporter interaction score (NOTCH1),3' UTR reporter interaction score (ZEB2),3' UTR reporter interaction score (FBXW7),3' UTR reporter interaction score (EZH2),3' UTR reporter interaction score (RB1),3' UTR reporter interaction score (PHF6),3' UTR reporter interaction score (MYT1L),3' UTR reporter interaction score (BRCA2)
AUGACCUAUGAAUUGACAGAC,1.39,0.425,0.0613,1.61,1.35,-1.53,-0.0227,-6.08,-0.658,0.321,-3,-2.93,0.231,-0.0675
AUGAUCCAGGAACCUGCCUCU,0.0276,-0.133,-0.239,-0.332,0.642,-1.8,0.405,-0.647,1.33,1.23,-0.262,-2.82,-2.69,0.796
AUGCACCUGGGCAAGGAUUCUG,1.46,0.134,-0.0328,0.3,-0.703,-3.43,0.738,-2.03,-4.97,2.23,-0.483,-1.61,1.1,1.42
AUGGAGAUAGAUAUAGAAAU,0.503,0.428,0.174,-0.0865,-0.424,0.37,-0.424,1.49,0.0761,1.16,-0.936,-0.821,-1.67,-0.571
AUGUAUGUGUGCAUGUGCAUG,-1.3,0.472,0.0318,-0.0409,0.324,-0.089,-0.54,-0.0851,0.682,1.67,-1.83,-1.08,-0.904,-0.994
AUUACAUGGCCAAUCUC,0.104,-0.228,0.293,0.0435,0.193,1.43,0.461,-0.413,0.611,-0.208,-1.24,-0.0228,-0.267,-0.25
AUUCAUUUGGUAUAAACCGCGAU,0.404,0.347,-1.06,-0.684,0.523,-0.197,0.53,0.368,-1.6,-0.0582,0.747,0.306,-0.154,-0.573
AUUCCUAGAAAUUGUUCAUA,-0.586,-0.0105,-0.0494,0.61,-0.577,-0.529,0.632,-0.418,0.157,0.167,-0.707,0.216,1.2,0.0394
AUUCUAAUUUCUCCACGUCUUUG,0.0131,0.632,0.345,0.162,0.587,0.107,-0.432,-0.49,-0.826,-4.24,-2.85,-1.02,0.697,-0.103
AUUCUGCAUUUUUAGCAAGU,1.31,0.548,0.643,1.56,1.34,-0.262,-2.14,-0.209,-2.1,0.847,0.0642,0.263,-2.22,-0.0751
AUUGACACUUCUGUGAGUAG,-0.339,-0.309,0.785,0.756,0.177,-1.35,-0.955,-1.2,-1.37,-0.495,0.465,-0.709,0.508,0.358
CAAAAAUCUCAAUUACUUUUGC,0.393,-0.151,0.17,-1.38,0.123,0.42,-0.966,-0.266,0.748,0.0697,-0.319,-0.915,0.42,-0.215
CAAAACUGGCAAUUACUUUUGC,-0.183,0.367,0.751,-1.52,-0.107,-0.532,0.158,0.0176,-2.13,0.755,0.322,-1.26,-0.395,-0.307
CAAAGAAUUCUCCUUUUGGGCUU,-0.381,0.0982,-0.294,0.952,0.453,-0.413,1.33,-0.283,-0.499,-0.313,1.54,-0.267,0.219,-0.174
CAAAGAGGAAGGUCCCAUUAC,-0.255,0.586,-1.21,0.328,0.419,-0.488,-0.106,1.21,0.456,-0.46,-0.878,-0.348,-0.262,-0.346
CAAAGCGCUCCCCUUUAGAGGU,0.756,1.33,-0.173,-0.147,-0.228,0.264,-0.101,1.31,-0.27,0.467,-1.27,1.12,-0.44,-0.715
CAAAGCGCUUCCCUUUGGAGC,-0.581,0.795,-0.385,-0.305,0.103,0.957,0.413,0.353,0.503,0.322,-0.468,0.27,-0.495,-0.805
CAAAGCGCUUCUCUUUAGAGUG,1.05,0.465,0.068,-0.443,-0.402,-1.15,0.203,-0.101,-1.3,0.725,-4.99e-18,1.07,-0.533,0.562
CAAAGUGCCUCCCUUUAGAGUGU,-0.351,0.317,0.418,0.155,0.839,0.0452,0.00359,-0.0865,0.81,-0.27,-0.937,0.15,-0.343,0.407
